Measurements taken from patent US10583109B2, “Use of silver(I) complexes as anticancer agents” (University of Johannesburg, priority 2012, dated 2020).

Tests used:
[1] = test system: SNO-oesophageal cancer cells; assay: Flow cytometric analysis (Annexin-V FITC / PI) of apoptosis and/or necrosis in SNO-oesophageal cancer cells; assay type: cell-based; settings: 10 μM
Method: To determine if either apoptosis or necrosis occurred, the cells were double labelled with Annexin-V FITC and Propidium Iodide (PI) by means of an Annexin-V FITC assay kit (Serotec, UK). This was done according to manufacturer's instructions with a few adjustments. Briefly, the cells (±3×10^5 cells/ml) were washed twice with cold phosphate buffered saline (PBS), followed by the addition of 100 μl 1× binding buffer. Two and a half microliters of Annexin-V along with 5 μl PI were added in the dark and was incubated for 15 minutes at room temperature. After incubation, 400 μl 1× binding buffer was added and cells were analysed using the FACSAria flow cytometer (BD Biosciences, San Jose, Calif.) with FACSDiva software (BD Biosciences, San Jose, Calif.) 492 nm (excitation) and 520 nm for Annexin and 488 nm and 575 nm(emission) for PI.
The cell membrane contains a negatively charged phosphatidylserine (PS) on the inner leaflet and is exposed when apoptosis or necrosis takes place. Annexin-V interacts with PS in both apoptotic and necrotic cells, making these cellular deaths undistinguishable. This is overcome by using PI as an alternative label that interacts with the exposed DNA of necrotic cells only, leading to the fluorescent detection of both these labels. Pie charts (FIG. 9) were constructed for all the controls (including Ligand-1 to Ligand-5) and the different silver(I) thiocyanate phosphine complexes (1)-(5).
Pie charts representing the four different flow cytometric quadrants of Annexin-V and […] to determine the mode of cellular death induced in differentially treated SNO-oesophageal cells are represented in FIG. 9. An untreated control (A), apoptotic control (B) and necrotic control (C) were included. Cells were treated with 10 μM of the different ligands including the silver(I) thiocyanate phosphine complexes (1)-(5). An average percentage was calculated for all segments where the SEM is n=3 for all treatments except for 15% H2O2 (n=2). The four segments represent the following: White segment—negative for FITC and PI, Light grey segment—positive for FITC but negative for PI, Dark grey segment—positive for PI but negative for FITC and Black segment—positive for both FITC and PI. Cells undergoing early apoptosis are represented by the light grey segment, while those of late apoptosis and primary necrosis are represented by the black segment. Necrotic cells are represented by the dark grey segment and intact viable cells are shown by the white segment.
Approximately 3×10^5 cells were washed with ice cold phosphate buffered saline solution (PBS). The cells were double labeled using an Annexin-V FITC assay kit adjusting the protocol. A 1× binding buffer (100 μl) was used to fix the cells. Annexin-V (2.5 μl) and Propidium Iodide (PI—5 μl) labels were added respectively followed by a 15 minute incubation, at room temperature, in the dark. After the incubation period, 400 μl of the 1× binding buffer was added, where counting of the cellular events was made using an FACSAria flow cytometer (BD Biosciences, San Jose, Calif.) with FACSDiva software (BD Biosciences, San Jose, Calif.). This technique in particular identifies whether predicted apoptotic cell death (or necrosis) was induced by these complexes.
As observed in FIG. 14, dot blots represent the mode of cellular death induced in the SNO-oesophageal cancer cells after 24 hours of treatment. FIG. 14(a): 0.1% DMSO, FIG. 14(b): 100 μM CDDP, FIG. 14(c): 25% H2O2, FIG. 14(d-i): complexes (6)-(9). An average percentage was calculated for all quadrants where the SEM is n=2 for all treatments. The four quadrants represent the following: Quadrant Q3 is negative for FITC and PI, Quadrant Q4 is positive for FITC but negative for PI, Quadrant Q1 is positive for PI but negative for FITC and Quadrant Q2 is positive for both FITC and PI. Cells undergoing early apoptosis are more likely to be found in Quadrant Q4 while those of late apoptosis and primary necrosis will be found in Quadrant Q2. […]

[2] = test system: SNO-oesophageal cancer cells; assay: Morphological features of SNO-oesophageal cancer cells by inverse light microscopy; assay type: cell-based; settings: 10 μM, 24 hours of treatment
Method: Morphological studies were done by means of an Axiovert 25 inverted microscope (Carl Zeiss, Göttingen, Germany) with Axio Vision 3.1 software (Carl Zeiss, Göttingen, Germany) using an magnification of 100×.
After 24 hours of treatment with complexes (1)-(5) including their ligands the cells were examined under said Axiovert 25 inverted light microscope. This was done to determine how the complexes of the present invention influence morphology which was compared to 100 μM Cisplatin (apoptotic control) and 15% H2O2 (necrotic control).
Light microscope images indicating the morphology of the differentially treated SNO-oesophageal cancer cells is shown in FIG. 8. An untreated control (a) including 100 μM Cisplatin (b), an apoptotic control and 15% H2O2 (c), and a necrotic control was included. Cells were treated with 10 μM silver(I) thiocyanate phosphine complexes (1)-(5) as well as their separate ligands (Ligand-1 to Ligand-5, respectively) (FIGS. 8d to 8m). Black arrows represent signs of apoptosis, while the white arrows represent signs of necrosis.
An Axiovert 25 inverted microscope was used to examine if these complexes affect the morphological features of the malignant cells in any other way. This was done at a magnification of 100× with the use of Axio Version 3.1 software (Carl Zeiss, Gottingen, Germany).
Morphological studies where done after 24 hours of treatment to determine how these compounds influence/change specific features of the malignant SNO-oesophageal cancer cells, compared to the untreated (UC) and 1% DMSO vehicle control. The treated cancer cells including their controls were examined under an Axiovert 25 inverted light microscope (Carl Zeiss, Göttingen, Germany) with Axio Vision 3.1 software (Carl Zeiss, Göttingen, Germany) using a 100× magnification. In FIG. 19, the morphology of the different controls including Ligand-10 and complexes (10)-(12) are represented. To predict the targeting mechanisms of these compounds, the treated cells were compared to 100 μM Cisplatin (apoptotic control) and 25% H2O2 (necrotic control).

Compound	viable cells (flow cytometry) ([1]; 24 hour treatment)	necrotic cell death (morphology) [2]	apoptotic cell death (flow cytometry, Q4 and Q2) ([1]; 24 hours of treatment)	cancer cells in which apoptosis was induced (flow cytometry) ([1]; 24 hour treatment)
C1#[N+][Ag]([P+](c2ccccc2)(c2ccccc2)c2ccccc2)([P+](c2ccccc2)(c2ccccc2)c2ccccc2)[S]C#[N+][Ag]([P+](c2ccccc2)(c2ccccc2)c2ccccc2)([P+](c2ccccc2)(c2ccccc2)c2ccccc2)[S]1 [complex (1), [AgSCN(PPh3)2]2]	~57.47%	Necrotic cell death was also observed	–	–
c1ccc([P+](c2ccccc2)(c2ccccc2)[Ag+]([P+](c2ccccc2)(c2ccccc2)c2ccccc2)([P+](c2ccccc2)(c2ccccc2)c2ccccc2)[P+](c2ccccc2)(c2ccccc2)c2ccccc2)cc1 [complex (9), AgNO3(PPh3)4]	–	–	15.3%	–
[AgSCN{P(4-FC6H4)3}2]2 [complex (3)]	approximately 28%	Necrotic cell death was also observed	–	more than half
